{
  "source": "patent US20060121449A1",
  "about": "“Method for selection of compounds which inhibit clonal cell growth and use thereof” (priority 2002, published 2006)",
  "key": {"HSV2": {"test_system": "HSV2", "assay": "HSV2 replication and cytopathogenicity in RK13 cells (Exp 12)", "type": "cell-based, Herpes virus 2", "details": "for Coverage of the bottom read after 24 hours: 1 g = 100% coverage of the bottom; for Cytopathogenicity read after 24 hours: 1d is 100% degeneration", "protocol": "RK13 cells and HSV2 v12225 was obtained from Dr. G. Hoddevik, National Institute of Public Health, Oslo, Virus had been stored at −75° C. It was propagated on RK13 cells.\nThen the medium, Eagles MEM with 5% FCS, was removed and replaced by new medium.\nThe inoculated virus was removed by changing the medium the day before titration. […] 1, esperiment 12."}, "HSV1": {"test_system": "HSV1", "assay": "HSV1 replication and cytopathogenicity in RK13 cells (Exp 11a, 11b)", "type": "cell-based, Herpes virus type 1", "details": "for Coverage of the bottom read after 2 days / Cytopathogenicity read after 2 days: 11b, HSV 2 μl/well; for Coverage of the bottom read after 2 days: 1 g = 100% coverage of the bottom; for Cytopathogenicity read after 2 days: 1d is 100% degeneration", "protocol": "RK13 cells and HSV1 v:11252 was obtained from Dr. G. Hoddevik, National Institute of Public Health, Oslo, Virus had been stored at −75° C.\nThe inoculated virus was not removed before the titration in the last experiment. This time, however, removal of inoculate was performed next day.\nHSV-1 was added undiluted, but 4-OH-OPB was diluted in 50 μl medium. The row seeded with 2000 nl of HSV was titrated and read after 4 days:\nThis time the inhibition is 10 times better than before. The difference from 1st time was that the day after infecting cell cultures the medium was changed in order to get rid of remaining active HSV. In addition the original HSV 1 infected and treated cultures were incubated one day more, for 48 hours. The production of virus is then measured in titration of 4-fold dilution steps."}, "[1]": {"test_system": "S100T1 cell strain (polyoma virus transformed BHK21/c13)", "assay": "Surface growth (degree of confluence) of S100T1 cells on plastic (Exp 5)", "type": "cell-based, hamster", "details": "2-4 days", "source_text": "The degree of confluence of polyoma virus transformed BHK21/c13 cells, the S100T1 cell strain, growing on plastic surface was observed 2-4 days after seeding 3000 or […] cells in appropriate wells of a 96 well tissue culture plate (Nunc)."}, "[2]": {"test_system": "spleen antibody producing cells against sheep red cells", "assay": "Jerne's test: haemolytic plaques of spleen cells after immunisation with sheep red cells (Exp 10)", "type": "in vivo, mouse", "details": "for Change of number of plaques (antibody producing cells), average and high doses: 8.4 μl 20 mM and 3.5 μl 200 mM s.c.; for Condition of the animals on injection days (day 0 to day 62): all animals, s.c. 2 μl 20 mM to 3.5 μl 200 mM, day = column head; for Plaque no. in 10 mill. cells: control 4689", "protocol": "The same principle could be tested in animals using the classical Jerne's test. Shortly described: Mice were immunised with sheep red cells. At the same time subcutaneous injection with a clone inhibitor, e.g. 4-OH-OPB, was performed. After 5 days the spleen was squeezed and spleen-cells counted and mixed with agar medium, sheep red cells and complement. After a short time plaques appeared and were counted and percent of total number of spleen cells was calculated. […] Therefore, it is probable that it is only the reaction against the new immunogen that is affected. […] Only cells of the same specificity seemed to be the <> of clonal inhibition even if lots of other B-lymphocytes are present, but with other specificities. The only condition necessary seemed to be that affected cells should be located more than a certain distance from each other.\nIn order to examine the degree of diminishing cloning in the immune system, Jerne's test in mice may be suitable (Experiment 10). Sheep erythrocytes are injected into mice. A few days later cells from the spleen of the animals are studied. In experiment 10 the smallest dose was about 3.8 μM if 4-OH-OPB was solved in the extracellular fluid of the mouse. […] But there are indications that normal cells might tolerate higher doses than malignant cells. Therefore, it is thought that effective tumour inhibiting doses of 4-OH-OPB probably will affect the clonability of antibody producing cells in the spleen under or shortly after primary immunisation moderately, about 2 logs.\nThe test animals were 4 mice, white Bom/NMRI (Table 5). The drug that was tested in this experiment is 4-OH-OPB (Table 1-4). It is inhibiting Ehrlich ascites when injected together with the cells in peritoneum in a concentration of 4 μM or higher and clonal growth of BHK21/c13 and its polyoma virus transformed offspring, S100T1, in cell culture.\nA section was performed; they were weighed and a search for tumour masses was undertaken without finding any. The spleens were removed and about half of it crushed in 0.5 ml Eagles for getting extracted, free spleen cells that were seeded in soft agar on top of a solid agar layer in a Petri dish of 8.5 cm in diameter. The agar layer with spleen cells also contained sheep red cells and complement was added to obtain hemolysis.\nAnimals were killed by cervical dislocation on day 62 and spleens were immediately put on cold Eagle's medium for transportation. It lasted about 5 hours before the agar dishes were ready for incubation in 5% CO2 and 37° C. However, the dishes from mouse #1 and #2 were too fluid in the top layers and developed two many plaques to be counted. Therefore, the next day, the second half of the two spleens from mouse #1 and #2 that were kept cold in the same medium were crushed in the same way and new dishes were prepared with less number of cells."}, "[3]": {"details": "Exp 10 animal 2, low: 2 μl 20 mM s.c."}, "[4]": {"details": "Exp 10 animal 3, average: 8.4 μl 20 mM s.c."}, "[5]": {"details": "Exp 10 animal 4, high: 3.5 μl 200 mM s.c."}},
  "data": [
    {"smiles": "CCCCC1(O)C(=O)N(c2ccccc2)N(c2ccc(O)cc2)C1=O", "note": "(stereo not drawn) [4-OH-OPB, 4-butyl-4-hydroxy-2(p-hydroxyphenyl)-1-phenyl-3,5-pyrazolidinedione]", "values": [
      {"measurement": "Concentrations with inhibited production of HSV2", "setting": "HSV2", "result": "above 0.1 μM"},
      {"measurement": "Coverage of the bottom read after 24 hours", "setting": "HSV2; 2 μl/well, 0.1 μM", "result": 1, "unit": "g"},
      {"measurement": "Cytopathogenicity read after 24 hours", "setting": "HSV2; 2 μl/well, 0.1 μM", "result": 0.6, "unit": "days"},
      {"measurement": "Coverage of the bottom read after 24 hours", "setting": "HSV2; 2 μl/well, 0.3 μM", "result": 1, "unit": "g"},
      {"measurement": "Cytopathogenicity read after 24 hours", "setting": "HSV2; 2 μl/well, 0.3 μM", "result": 0.7, "unit": "days"},
      {"measurement": "Coverage of the bottom read after 24 hours", "setting": "HSV2; 2 μl/well, 1 μM", "result": 1, "unit": "g"},
      {"measurement": "Cytopathogenicity read after 24 hours", "setting": "HSV2; 2 μl/well, 1 μM", "result": 0.7, "unit": "days"},
      {"measurement": "Coverage of the bottom read after 24 hours", "setting": "HSV2; 2 μl/well, 3 μM", "result": 0.8, "unit": "g"},
      {"measurement": "Cytopathogenicity read after 24 hours", "setting": "HSV2; 2 μl/well, 3 μM", "result": 0.95, "unit": "days"},
      {"measurement": "Coverage of the bottom read after 24 hours", "setting": "HSV2; 2 μl/well, 10 μM", "result": 0.9, "unit": "g"},
      {"measurement": "Cytopathogenicity read after 24 hours", "setting": "HSV2; 2 μl/well, 10 μM", "result": 0.95, "unit": "days"},
      {"measurement": "Coverage of the bottom read after 24 hours", "setting": "HSV2; 2 μl/well, 30 μM", "result": 0.7, "unit": "g"},
      {"measurement": "Cytopathogenicity read after 24 hours", "setting": "HSV2; 2 μl/well, 30 μM", "result": 0.2, "unit": "days"},
      {"measurement": "Coverage of the bottom read after 24 hours", "setting": "HSV2; 8 μl/well, 0.1 μM", "result": 1, "unit": "g"},
      {"measurement": "Cytopathogenicity read after 24 hours", "setting": "HSV2; 8 μl/well, 0.1 μM", "result": 0.9, "unit": "days"},
      {"measurement": "Coverage of the bottom read after 24 hours", "setting": "HSV2; 8 μl/well, 0.3 μM", "result": 1, "unit": "g"},
      {"measurement": "Cytopathogenicity read after 24 hours", "setting": "HSV2; 8 μl/well, 0.3 μM", "result": 0.9, "unit": "days"},
      {"measurement": "Coverage of the bottom read after 24 hours", "setting": "HSV2; 8 μl/well, 1 μM", "result": 1, "unit": "g"},
      {"measurement": "Cytopathogenicity read after 24 hours", "setting": "HSV2; 8 μl/well, 1 μM", "result": 0.9, "unit": "days"},
      {"measurement": "Coverage of the bottom read after 24 hours", "setting": "HSV2; 8 μl/well, 3 μM", "result": 0.8, "unit": "g"},
      {"measurement": "Cytopathogenicity read after 24 hours", "setting": "HSV2; 8 μl/well, 3 μM", "result": 0.95, "unit": "days"},
      {"measurement": "Coverage of the bottom read after 24 hours", "setting": "HSV2; 8 μl/well, 10 μM", "result": 0.86, "unit": "g"},
      {"measurement": "Cytopathogenicity read after 24 hours", "setting": "HSV2; 8 μl/well, 10 μM", "result": 0.95, "unit": "days"},
      {"measurement": "Coverage of the bottom read after 24 hours", "setting": "HSV2; 8 μl/well, 30 μM", "result": 0.7, "unit": "g"},
      {"measurement": "Cytopathogenicity read after 24 hours", "setting": "HSV2; 8 μl/well, 30 μM", "result": 0.2, "unit": "days"},
      {"measurement": "Inhibition of HSV2 titre at 3 μM", "setting": "HSV2; titration incubated for 3 days", "result": "about 3 log"},
      {"measurement": "Coverage of the bottom read after 2 days", "setting": "HSV1; 0.1 μM", "result": 1, "unit": "g"},
      {"measurement": "Cytopathogenicity read after 2 days", "setting": "HSV1; 0.1 μM", "result": 0.28, "unit": "days"},
      {"measurement": "Cytopathogenicity read after 2 days", "setting": "HSV1; 0.3 μM", "result": 0.28, "unit": "days"},
      {"measurement": "Coverage of the bottom read after 2 days", "setting": "HSV1; 10 μM", "result": 0.4, "unit": "g"},
      {"measurement": "Cytopathogenicity read after 2 days", "setting": "HSV1; 30 μM", "result": 0, "unit": "days"},
      {"measurement": "Concentration found to inhibit satisfactorily", "setting": "HSV1; Exp 11b, new medium after 24 hours, titrated after 48 hours", "result": 1, "unit": "µM"},
      {"measurement": "Concentration giving about full inhibition of growth on surface", "setting": "[1]; 3000 S100T1 cells/well", "result": 1, "unit": "µM"},
      {"measurement": "Concentration giving about full inhibition of growth on surface", "setting": "[1]; 10000 S100T1 cells/well", "result": 3, "unit": "µM"},
      {"measurement": "Change of number of plaques, smallest dose", "setting": "[2]; Exp 10, 2 μl 20 mM s.c.", "result": "did not significantly change the number of plaques"},
      {"measurement": "Change of number of plaques (antibody producing cells), average and high doses", "setting": "[2]; Exp 10", "result": "did reduce the number significantly"},
      {"measurement": "Change of number of plaques (antibody producing cells), average and high doses", "setting": "[2]; Exp 10, listed as 4-OH—OPB", "result": "OPB significantly reduced the number of anti-"},
      {"measurement": "Condition of the animals on injection days (day 0 to day 62)", "setting": "[2]; Exp 10", "result": "all animals were clinically well"},
      {"measurement": "Condition of the animals on injection days (day 0 to day 62)", "setting": "[2]; Exp 10, listed as 4-OH—OPB", "result": "all well at end"},
      {"measurement": "1. number of plaques", "setting": "[2]; [3]", "result": "many"},
      {"measurement": "2. number of plaques", "setting": "[2]; Exp 10 animal 2, low: 2 μl 20 mM s.c., 32.6 million cells on dish", "result": 10218},
      {"measurement": "Plaque no. in 10 mill. cells", "setting": "[2]; [3]", "result": 3134},
      {"measurement": "1. number of plaques", "setting": "[2]; [4]", "result": 42},
      {"measurement": "Spleen weight", "setting": "[2]; Exp 10 animal 3, average: 8.4 μl 20 mM s.c. (est. max extracellular 19.6 μM)", "result": 150, "unit": "mg"},
      {"measurement": "Plaque no. in 10 mill. cells", "setting": "[2]; [4]", "result": 8.4},
      {"measurement": "1. number of plaques", "setting": "[2]; [5]", "result": "0-2?"},
      {"measurement": "Spleen weight", "setting": "[2]; Exp 10 animal 4, high: 3.5 μl 200 mM s.c. (est. max extracellular 67.7 μM)", "result": 136, "unit": "mg"},
      {"measurement": "Plaque no. in 10 mill. cells", "setting": "[2]; [5]", "result": "<=0.23"},
      {"measurement": "Mouse weight after 2 months", "setting": "[2]; Exp 10 mouse 2 (11.3 μg 4-OH-OPB/30 g)", "result": 37.6, "unit": "gram"},
      {"measurement": "Mouse weight after 2 months", "setting": "[2]; Exp 10 mouse 3 (51.5 μg 4-OH-OPB/30 g)", "result": 33.3, "unit": "gram"},
      {"measurement": "Mouse weight after 2 months", "setting": "[2]; Exp 10 mouse 4 (210.2 μg 4-OH-OPB/30 g)", "result": 34, "unit": "gram"}
    ]}
  ]
}
